Results: patent US11986532B2 (Arvinas Operations, Inc., priority 2021, dated 2024)
Read-outs that look alike come from different tables or passages of the source.

Target: T1, BCL6 (Homo sapiens, UniProt P41182)
T1 construct: endogenous in cells; host or cells: T47D breast cancer epithelial cells
Assay: Immunofluorescence protocol for high content imaging of BCL6 (degradation) in T47D cells, 3 days compound treatment
Format: cell-based
Conditions: for DC50: read-out: Mean DC50 (nM)* category; for Dmax: read-out: Mean Dmax (%)** category
Description: Immunofluorescence Protocol for High Content Imaging of BCL6
T47D cells were seeded in 100 μl volume of RPMI1640-10% FBS in a 96-well black/clear bottom plates for adherent lines (Corning #3904).
Day 1. T47D breast cancer epithelial cells were seeded at a density so that confluence is ˜70-90% at endpoint. Cells were seeded at 7K/0.1 ml/well the morning prior to the addition of exemplary bifunctional degradation compounds.
Day 2. Prepare an 11 point 3-fold serial dilution of exemplary bifunctional compound in DMSO and aliquot an appropriate volume to cell growth media to generate a 2× final concentration of exemplary bifunctional compound. Add an equal volume (0.1 ml) of 2× exemplary bifunctional compound/media mix to previously plated cells, for a final top concentration in aqueous cell growth media of 0.1 or 1 μM. Incubate for 3 days at 37° C., 5% CO2.
Day 5 Immunofluorescence. Discard cell media. Wash wells with 200 μl of room temperature phosphate-buffered saline (PBS). Prepared 4% paraformaldehyde (PFA) from 16% PFA (Electron Microscopy Sciences #15710) using 1×PBS. Fifty μl of 4% PF was added to each well and incubate for 15 minutes at room temperature to fix the cells. The PFA was aspirated and the cells washed twice with PBS (200 μl)).
Prepared 0.1% Triton X-100 in PBS using 10% triton X-100 stock. The cells were permeabilized by adding 100 ul of the 0.1% Triton X-100 in PBS to each well to permeabilize cells and incubating at room temperature for 15 minutes. Cells were washed twice with PBS.
Prepared 3% BSA/PBS (from Thermofisher #37515 Blocker BSA in TBS, 10%), and 100 ul was added to each well. The cells were incubated for at least 1 hour at room temperature.
Prepared 1% BSA/PBS using Blocker BSA/PBS, and the 3% BSA/PBS removed from the wells.
For no primary antibody controls, 50 μl 1% BSA/PBS was added.
Primary antibody (BCL6 Rb Ab, CST-14895, Cell Signaling) was diluted 1:300 in 1% BSA/PBS using Blocker BSA/PBS.
Fifty μl of primary antibody added to all remaining wells (i.e., all wells other than the primary antibody controls) and the cells were incubated overnight at 4° C. with slow orbital movement.
Day 6. Contents of the wells was removed and the cells washed four times with 200 ul PBS. 1% BSA/PBS was prepared using Blocker BSA in PBS.
Diluted secondary antibody goat anti-Rb IgG Alexa-488 1:1000, and cell mask-Alexa-647 1:3000 in 1% BSA/PBS in the same mix. Add 50 μl to each well and incubate at room temperature for 1 hour in the dark.
Cells were washed three times with 200 ul PBS, and then incubated for 10 minutes with 100 ul Hoechst dye at 1 μg/mL (20 mM stock) to stain cell nuclei. Wells were then washed with 200 μl PBS, and 100 ul of PBS was added to each well and the plate covered plate with a plastic opaque cover. Plates were stored at 4° C. and covered in aluminum foil until imaged.
Plates were equilibrated to room temperature prior to reading. The bottom of the plate was wiped with 70% isopropanol immediately prior to imaging.
10×, 4 fields/well, include Top hat smoothing in the analysis protocol.
16% paraformaldehyde: Electron Microscopy Sciences #15710
Hoechst: Thermofisher #62249
Blocker BSA in PBS, 10%: Thermofisher #37515
Blocker BSA in TBS, 10%: Thermofisher #37520
Goat anti-rabbit or mouse AlexaFluor-488: Thermofisher #A11008
Cell mask deep red AlexaFluor-647: Thermofisher #C10046
Wash buffer, PBS: 20×PBS, Thermofisher

[1] = T47D cells, 3 days compound treatment

DC50 [1]	Dmax [1]	Dmax (T47D)	DC50	SMILES
< 10 nM	50 to 70%			CNC(=O)COc1cc2cc(Nc3nc(N4CCC(CN5CCC6(CC5)CN(c5ccc7c(c5)C(=O)N(C5CCC(=O)NC5=O)C7=O)C6)CC4)ncc3Cl)cc(F)c2n(C(C)C)c1=O (stereo not drawn) [Compound 111, 2-{[6-({5-chloro-2-[4-({2-[2-(2,6-dioxopiperidin-3-yl)-1,3-dioxo-2,3-dihydro-1H-isoindol-5-yl]-2,7-diazaspiro[3.5]nonan-7-yl}methyl)piperidin-1-yl]pyrimidin-4-yl}amino)-8-fluoro-2-oxo-1-(propan-2-yl)-1,2-dihydroquinolin-3-yl]oxy}-N-methylacetamide]
10 to 50 nM	50 to 70%			CNC(=O)COc1cc2cc(Nc3nc(N4CCC(OC5CCC(N6CCC(c7ccc8c(c7)C(=O)N(C7CCC(=O)NC7=O)C8=O)CC6)C5)CC4)ncc3Cl)ccc2n(C(C)C)c1=O (stereo not drawn) [Compound 42, 2-({6-[(5-chloro-2-{4-[(3-{4-[2-(2,6-dioxopiperidin-3-yl)-1,3-dioxo-2,3-dihydro-1H-isoindol-5-yl]piperidin-1-yl}cyclopentyl)oxy]piperidin-1-yl}pyrimidin-4-yl)amino]-2-oxo-1-(propan-2-yl)-1,2-dihydroquinolin-3-yl}oxy)-N-methylacetamide]
		50 to 70%	< 10 nM	CNC(=O)COc1cc2cc(Nc3nc(N4CCC(OC5CCC6(CC5)CN(c5c(F)cc7c(c5F)CN(C5CCC(=O)NC5=O)C7=O)C6)CC4)ncc3Cl)ccc2n(C(C)C)c1=O (stereo not drawn) [Compound 324, 2-{[6-({5-chloro-2-[4-({2-[2-(2,6-dioxopiperidin-3-yl)-4,6-difluoro-1-oxo-2,3-dihydro-1H-isoindol-5-yl]-2-azaspiro[3.5]nonan-7-yl}oxy)piperidin-1-yl]pyrimidin-4-yl}amino)-2-oxo-1-(propan-2-yl)-1,2-dihydroquinolin-3-yl]oxy}-N-methylacetamide]
		50 to 70%	< 10 nM	CNC(=O)COc1cc2cc(Nc3nc(N4CCC(N5CCC56CN(C5CCN(c7ccc8c(c7)CN(C7CCC(=O)NC7=O)C8=O)CC5)C6)CC4)ncc3Cl)ccc2n(C(C)C)c1=O (stereo not drawn) [Compound 238, 2-{[6-({5-chloro-2-[4-(6-{1-[2-(2,6-dioxopiperidin-3-yl)-1-oxo-2,3-dihydro-1H-isoindol-5-yl]piperidin-4-yl}-1,6-diazaspiro[3.3]heptan-1-yl)piperidin-1-yl]pyrimidin-4-yl}amino)-2-oxo-1-(propan-2-yl)-1,2-dihydroquinolin-3-yl]oxy}-N-methylacetamide]
10 to 50 nM	50 to 70%			CNC(=O)COc1cc2cc(Nc3nc(N4CCC(CN5CCC6(CC5)CN(c5ccc7c(c5)C(=O)N(C5CCC(=O)NC5=O)C7=O)C6)CC4)ncc3F)ccc2n(C(C)C)c1=O (stereo not drawn) [Compound 57, 2-{[6-({2-[4-({2-[2-(2,6-dioxopiperidin-3-yl)-1,3-dioxo-2,3-dihydro-1H-isoindol-5-yl]-2,7-diazaspiro[3.5]nonan-7-yl}methyl)piperidin-1-yl]-5-fluoropyrimidin-4-yl}amino)-2-oxo-1-(propan-2-yl)-1,2-dihydroquinolin-3-yl]oxy}-N-methylacetamide]
		≥ 70%	< 10 nM	CNC(=O)COc1cc2cc(Nc3nc(N4CCC(CN5CCC6(CC5)CCN6c5ccc6c(c5)C(=O)N(C5CCC(=O)NC5=O)C6=O)CC4)ncc3Cl)ccc2n(C(C)C)c1=O (stereo not drawn) [Compound 335, 2-{[6-({5-chloro-2-[4-({1-[2-(2,6-dioxopiperidin-3-yl)-1,3-dioxo-2,3-dihydro-1H-isoindol-5-yl]-1,7-diazaspiro[3.5]nonan-7-yl}methyl)piperidin-1-yl]pyrimidin-4-yl}amino)-2-oxo-1-(propan-2-yl)-1,2-dihydroquinolin-3-yl]oxy}-N-methylacetamide]

More lines, now with the values behind:

SMILES	DC50 [1]	Dmax [1]	Dmax (T47D)	DC50
CNC(=O)COc1cc2cc(Nc3nc(N4CCC(CN5CCC6(CN(c7ccc8c(c7F)CN(C7CCC(=O)NC7=O)C8=O)C6)C(F)(F)C5)CC4)ncc3Cl)ccc2n(C(C)C)c1=O (stereo not drawn) [Compound 332, 2-{[6-({5-chloro-2-[4-({2-[2-(2,6-dioxopiperidin-3-yl)-4-fluoro-1-oxo-2,3-dihydro-1H-isoindol-5-yl]-5,5-difluoro-2,7-diazaspiro[3.5]nonan-7-yl}methyl)piperidin-1-yl]pyrimidin-4-yl}amino)-2-oxo-1-(propan-2-yl)-1,2-dihydroquinolin-3-yl]oxy}-N-methylacetamide]			≥ 70%	< 10 nM
CNC(=O)COc1cc2cc(Nc3nc(N4CCC(C(C)(C)N5CCC6(CC5)CN(c5cc(OC)cc7c5CN(C5CCC(=O)NC5=O)C7=O)C6)CC4)ncc3Cl)ccc2n(C(C)C)c1=O (stereo not drawn) [Compound 328, 2-{[6-({5-chloro-2-[4-(2-{2-[2-(2,6-dioxopiperidin-3-yl)-6-methoxy-1-oxo-2,3-dihydro-1H-isoindol-4-yl]-2,7-diazaspiro[3.5]nonan-7-yl}propan-2-yl)piperidin-1-yl]pyrimidin-4-yl}amino)-2-oxo-1-(propan-2-yl)-1,2-dihydroquinolin-3-yl]oxy}-N-methylacetamide]			50 to 70%	< 10 nM
CNC(=O)COc1cc2cc(Nc3nc(N4CCC(O[C@H]5C[C@H](N6CC7(CCN7c7cccc8c7CN(C7CCC(=O)NC7=O)C8=O)C6)C5)CC4)ncc3Cl)ccc2n(C(C)C)c1=O (stereo partly drawn) [Compound 317, 2-({6-[(5-chloro-2-{4-[(1r,3r)-3-{1-[2-(2,6-dioxopiperidin-3-yl)-1-oxo-2,3-dihydro-1H-isoindol-4-yl]-1,6-diazaspiro[3.3]heptan-6-yl}cyclobutoxy]piperidin-1-yl}pyrimidin-4-yl)amino]-2-oxo-1-(propan-2-yl)-1,2-dihydroquinolin-3-yl}oxy)-N-methylacetamide]			50 to 70%	< 10 nM
CNC(=O)COc1cc2cc(Nc3nc(N4CCC(O[C@H]5C[C@H](N6CCC(c7c(OC)cc8c(c7F)CN(C7CCC(=O)NC7=O)C8=O)CC6)C5)CC4)ncc3Cl)ccc2n(C(C)C)c1=O (stereo partly drawn) [Compound 409, 2-({6-[(5-chloro-2-{4-[(1r,3r)-3-{4-[2-(2,6-dioxopiperidin-3-yl)-4-fluoro-6-methoxy-1-oxo-2,3-dihydro-1H-isoindol-5-yl]piperidin-1-yl}cyclobutoxy]piperidin-1-yl}pyrimidin-4-yl)amino]-2-oxo-1-(propan-2-yl)-1,2-dihydroquinolin-3-yl}oxy)-N-methylacetamide]			≥ 70%	< 10 nM
CNC(=O)COc1cc2cc(Nc3nc(N4CCC(O[C@H]5C[C@H](N6CCCC7(CCN(c8ccc9c(c8)C(=O)N(C8CCC(=O)NC8=O)C9=O)C7)C6)C5)CC4)ncc3Cl)ccc2n(C(C)C)c1=O (stereo partly drawn) [Compound 355, 2-({6-[(5-chloro-2-{4-[(1r,3r)-3-{2-[2-(2,6-dioxopiperidin-3-yl)-1,3-dioxo-2,3-dihydro-1H-isoindol-5-yl]-2,7-diazaspiro[4.5]decan-7-yl}cyclobutoxy]piperidin-1-yl}pyrimidin-4-yl)amino]-2-oxo-1-(propan-2-yl)-1,2-dihydroquinolin-3-yl}oxy)-N-methylacetamide]			≥ 70%	< 10 nM
CNC(=O)COc1cc2cc(Nc3nc(N4CCC(O[C@H]5C[C@H](N6CCC(c7cc(F)c8c(c7)CN(C7CCC(=O)NC7=O)C8=O)CC6)C5)CC4)ncc3Cl)ccc2n(C(C)C)c1=O (stereo partly drawn) [Compound 92, 2-({6-[(5-chloro-2-{4-[(1r,3r)-3-{4-[2-(2,6-dioxopiperidin-3-yl)-7-fluoro-1-oxo-2,3-dihydro-1H-isoindol-5-yl]piperidin-1-yl}cyclobutoxy]piperidin-1-yl}pyrimidin-4-yl)amino]-2-oxo-1-(propan-2-yl)-1,2-dihydroquinolin-3-yl}oxy)-N-methylacetamide]	< 10 nM	≥ 70%		
